Reference: article PMC8484140 (Targeted Oncology, 2021)
“Also recorded” adds a separate entry of the source.

Columns and labels:
[1] = Safety and DLT evaluation; assay type: in vivo, human
[2] = Plasma pharmacokinetics of entinostat; assay type: in vivo, human
[3] = DLT observation stage, 5 mg group
[4] = Stage I, 3 mg/week monotherapy, n=4
[5] = Stage I, 5 mg/week monotherapy, n=12
[6] = Stage I, 7 mg/week monotherapy, n=3
[7] = most common grade 3/4 AEs, 19 dose-escalation patients, stage not stated
[8] = female, human, plasma, po, 3 mg
[9] = female, human, plasma, po, 3 mg/week
[10] = female, human, plasma, po, 5 mg
[11] = female, human, plasma, po, 5 mg/week
[12] = female, human, plasma, po, 7 mg
[13] = female, human, plasma, po, 7 mg/week

With `Nc1ccccc1NC(=O)c1ccc(CNC(=O)OCc2cccnc2)cc1` [Entinostat] the Tolerability ([1]; 3, 5, 7 mg/week) was “well tolerated at all doses”, the “Grade 3/4 AEs” value [1, 3] was 16.7% and the “Suspicious DLT (G3 ventricular tachycardia)” value [1, 3] was “one”. The “Grade 3/4 AEs” value ([1]; DLT observation stage, 7 mg group) was 33.3%, the “CTCAE grade 3 AE” value ([1]; Stage I, 3 mg/week group) was “no CTCAE grade 3 AE occurred” and the “AKP elevation, entinostat-related AE of all grades” value (from here on “AKP elevation”) [1, 4] was 0 No. (%). For the same compound, the “ALT elevation, entinostat-related AE of all grades” value (“ALT elevation” below) [1, 4] was 0 No. (%), the “AST elevation, entinostat-related AE of all grades” value (shortened to “AST elevation”) [1, 4] was 0 No. (%) and the “Abdominal pain, entinostat-related AE of all grades” value (“Abdominal pain” for short) [1, 4] was 0 No. (%). The “Anemia, entinostat-related AE of all grades” value (“Anemia, entinostat-related AE” for short) [1, 4] was 2 (50) No. (%), the “Back pain, entinostat-related AE of all grades” value (from here on “Back pain, entinostat-related AE”) [1, 4] was 0 No. (%) and the “Chest pain, entinostat-related AE of all grades” value (“Chest pain” for short) [1, 4] was 0 No. (%). The “Creatine increase, entinostat-related AE of all grades” value (“Creatine increase” for short) [1, 4] was 0 No. (%), the “Creatinine phosphokinase increase, entinostat-related AE of all grades” value (“Creatinine phosphokinase increase” below) [1, 4] was 0 No. (%) and the “Debilitation, entinostat-related AE of all grades” value (shortened to “Debilitation … of all grades”) [1, 4] was 0 No. (%). The “Diarrhea, entinostat-related AE of all grades” value (“Diarrhea, entinostat-related AE” below) [1, 4] was 0 No. (%), the “Fatigue, entinostat-related AE of all grades” value (shortened to “Fatigue, entinostat-related AE”) [1, 4] was 0 No. (%) and the “Flatulence, entinostat-related AE of all grades” value (“Flatulence … of all grades” below) [1, 4] was 0 No. (%). For the same compound, the “Headache, entinostat-related AE of all grades” value (“Headache, entinostat-related AE” below) [1, 4] was 0 No. (%), the “Hypoalbuminemia, entinostat-related AE of all grades” value (shortened to “Hypoalbuminemia … of all grades”) [1, 4] was 0 No. (%) and the “Hypocalcemia, entinostat-related AE of all grades” value (shortened to “Hypocalcemia … of all grades”) [1, 4] was 0 No. (%). The “Hypokalemia, entinostat-related AE of all grades” value (“Hypokalemia … of all grades” below) [1, 4] was 0 No. (%), the “Hypoproteinemia, entinostat-related AE of all grades” value (“Hypoproteinemia … of all grades” for short) [1, 4] was 0 No. (%) and the “LDH increase, entinostat-related AE of all grades” value (from here on “LDH increase”) [1, 4] was 0 No. (%). The “Leukopenia, entinostat-related AE of all grades” value (shortened to “Leukopenia … of all grades”) [1, 4] was 3 (75) No. (%), the “Limb pain, entinostat-related AE of all grades” value (from here on “Limb pain, entinostat-related AE”) [1, 4] was 0 No. (%) and the “Nausea, entinostat-related AE of all grades” value [1, 4] was 0 No. (%). The “Neutropenia, entinostat-related AE of all grades” value (“Neutropenia … of all grades” for short) [1, 4] was 3 (75) No. (%), the “Palpitation, entinostat-related AE of all grades” value (from here on “Palpitation … of all grades”) [1, 4] was 0 No. (%) and the “Serum Ca^2+ decrease, entinostat-related AE of all grades” value (from here on “Serum Ca^2+ decrease”) [1, 4] was 0 No. (%). For the same compound, the “Serum Na+ decrease, entinostat-related AE of all grades” value (shortened to “Serum Na+ decrease”) [1, 4] was 0 No. (%), the “Serum albumin decrease, entinostat-related AE of all grades” value (from here on “Serum albumin decrease”) [1, 4] was 0 No. (%) and the “Serum phosphate decrease, entinostat-related AE of all grades” value (“Serum phosphate decrease” for short) [1, 4] was 0 No. (%). For the same compound, the “Serum urea increase, entinostat-related AE of all grades” value (shortened to “Serum urea increase”) [1, 4] was 0 No. (%), the “Thrombocytopenia, entinostat-related AE of all grades” value (shortened to “Thrombocytopenia … of all grades”) [1, 4] was 0 No. (%) and the “Γ-GT elevation, entinostat-related AE of all grades” value (“Γ-GT elevation” below) [1, 4] was 0 No. (%). For the same compound, the “α-HBDH elevation, entinostat-related AE of all grades” value (“α-HBDH elevation” below) [1, 4] was 0 No. (%), the “Cases of CTCAE grade 3 AE” value ([1]; Stage I, 5 mg/week group) was “four” and the “AKP elevation” value [1, 5] was 2 (16.7) No. (%). For the same compound, the “ALT elevation” value [1, 5] was 2 (16.7) No. (%), the “AST elevation” value [1, 5] was 2 (16.7) No. (%) and the “Abdominal pain” value [1, 5] was 2 (16.7) No. (%). The “Anemia, entinostat-related AE” value [1, 5] was 0 No. (%), the “Back pain, entinostat-related AE” value [1, 5] was 3 (25) No. (%) and the “Chest pain” value [1, 5] was 2 (16.7) No. (%). The “Creatine increase” value [1, 5] was 0 No. (%), the “Creatinine phosphokinase increase” value [1, 5] was 0 No. (%) and the “Debilitation … of all grades” value [1, 5] was 2 (16.7) No. (%). For the same compound, the “Diarrhea, entinostat-related AE” value [1, 5] was 0 No. (%), the “Fatigue, entinostat-related AE” value [1, 5] was 2 (16.7) No. (%) and the “Flatulence … of all grades” value [1, 5] was 2 (16.7) No. (%). For the same compound, the “Headache, entinostat-related AE” value [1, 5] was 3 (25) No. (%), the “Hypoalbuminemia … of all grades” value [1, 5] was 0 No. (%) and the “Hypocalcemia … of all grades” value [1, 5] was 0 No. (%). For the same compound, the “Hypokalemia … of all grades” value [1, 5] was 0 No. (%), the “Hypoproteinemia … of all grades” value [1, 5] was 0 No. (%) and the “LDH increase” value [1, 5] was 0 No. (%). The “Leukopenia … of all grades” value [1, 5] was 7 (58.3) No. (%), the “Limb pain, entinostat-related AE” value [1, 5] was 0 No. (%) and the “Neutropenia … of all grades” value [1, 5] was 4(33.3) No. (%). The “Palpitation … of all grades” value [1, 5] was 2 (16.7) No. (%), the “Serum Ca^2+ decrease” value [1, 5] was 0 No. (%) and the “Serum Na+ decrease” value [1, 5] was 0 No. (%). The “Serum albumin decrease” value [1, 5] was 0 No. (%), the “Serum phosphate decrease” value [1, 5] was 0 No. (%) and the “Serum urea increase” value [1, 5] was 0 No. (%). For the same compound, the “Thrombocytopenia … of all grades” value [1, 5] was 2 (16.7) No. (%), the “Γ-GT elevation” value [1, 5] was 2 (16.7) No. (%) and the “α-HBDH elevation” value [1, 5] was 2 (16.7) No. (%). For the same compound, the “AKP elevation” value [1, 6] was 0 No. (%), the “ALT elevation” value [1, 6] was 0 No. (%) and the “AST elevation” value [1, 6] was 0 No. (%). For the same compound, the “Abdominal pain” value [1, 6] was 0 No. (%), the “Anemia, entinostat-related AE” value [1, 6] was 0 No. (%) and the “Back pain, entinostat-related AE” value [1, 6] was 0 No. (%). For the same compound, the “Chest pain” value [1, 6] was 0 No. (%), the “Creatine increase” value [1, 6] was 0 No. (%) and the “Creatinine phosphokinase increase” value [1, 6] was 0 No. (%). For the same compound, the “Debilitation … of all grades” value [1, 6] was 0 No. (%), the “Diarrhea, entinostat-related AE” value [1, 6] was 0 No. (%) and the “Fatigue, entinostat-related AE” value [1, 6] was 0 No. (%). The “Flatulence … of all grades” value [1, 6] was 0 No. (%), the “Headache, entinostat-related AE” value [1, 6] was 0 No. (%) and the “Hypoalbuminemia … of all grades” value [1, 6] was 0 No. (%). The “Hypocalcemia … of all grades” value [1, 6] was 0 No. (%), the “Hypokalemia … of all grades” value [1, 6] was 0 No. (%) and the “Hypoproteinemia … of all grades” value [1, 6] was 0 No. (%). For the same compound, the “LDH increase” value [1, 6] was 0 No. (%), the “Leukopenia … of all grades” value [1, 6] was 0 No. (%) and the “Limb pain, entinostat-related AE” value [1, 6] was 0 No. (%). For the same compound, the “Nausea, entinostat-related AE of all grades” value [1, 6] was 0 No. (%), the “Neutropenia … of all grades” value [1, 6] was 2 (66.7) No. (%) and the “Palpitation … of all grades” value [1, 6] was 0 No. (%). For the same compound, the “Serum Ca^2+ decrease” value [1, 6] was 0 No. (%), the “Serum Na+ decrease” value [1, 6] was 0 No. (%) and the “Serum albumin decrease” value [1, 6] was 0 No. (%). The “Serum phosphate decrease” value [1, 6] was 0 No. (%), the “Serum urea increase” value [1, 6] was 0 No. (%) and the “Thrombocytopenia … of all grades” value [1, 6] was 0 No. (%). For the same compound, the “Γ-GT elevation” value [1, 6] was 0 No. (%), the “α-HBDH elevation” value [1, 6] was 0 No. (%) and the “Patients with entinostat-related AEs” value ([1]; Stage I, all 19 patients) was 100%. For the same compound, the “Dose-limiting toxicity (DLT) in Stage I” value ([1]; all dose groups (3, 5, 7 mg/week)) was “no patients experienced a DLT; also recorded: no DLT events occurred”, the “Grade 3/4 neutropenia” value [1, 7] was 31.6% and the “Grade 3/4 thrombocytopenia” value [1, 7] was 15.8%. The “Median tolerance limit (MLT)” value ([1]; throughout the trial, up to 7 mg/week) was “not achieved”, the “Dose dependence of exposure (Cmax, AUC)” value ([2]; 3–7 mg) was “increased dose proportionally; also recorded: linear relationship between AUC0-168 and entinostat dose” and the Tmax ([2]; Day 22, 5 mg/week oral, N=12, median (Min., Max.)) was 0.50 (0.25, 8.00) h. For the same compound, the Tmax ([2]; female, human, plasma, oral) was roughly 0.5 h, the half-life ([2]; female, human, plasma, oral) was 38.3 to 65.3 h and the AUC(0-inf) [2, 8] was 0.572 ± 0.122 µg·h/mL. For the same compound, the Cmax [2, 8] was 0.0492 ± 0.00838 µg/mL, the half-life [2, 8] was 38.3 h and the AUC(0-inf) [2, 9] was 0.609 ± 0.0443 µg·h/mL. The Cmax [2, 9] was 0.0557 ± 0.0382 µg/mL, the Tmax [2, 9] was 0.47 h and the half-life [2, 9] was 65.3 h. It also gave an AUC(0-inf) [2, 10] of 1.07 ± 0.364 µg·h/mL, a Cmax [2, 10] of 0.101 ± 0.0621 µg/mL and a half-life [2, 10] of 51.7 h. The AUC(0-inf) [2, 11] was 1.31 ± 0.349 µg·h/mL, the Cmax [2, 11] was 0.107 ± 0.0632 µg/mL and the half-life [2, 11] was 61.9 h. The AUC(0-inf) [2, 12] was 1.38 ± 0.206 µg·h/mL, the Cmax [2, 12] was 0.154 ± 0.0392 µg/mL and the Tmax [2, 12] was 0.55 h. The half-life [2, 12] was 48.1 h, the AUC(0-inf) [2, 13] was 1.65 ± 0.452 µg·h/mL and the Cmax [2, 13] was 0.122 ± 0.0761 µg/mL. The half-life [2, 13] was 56.2 h.
